Experimental data as given in patent US11255843B2, “Compositions and methods for identifying metabolically active agents” (Northwestern University, priority 2016, dated 2022).
Counter-ions that a name gives are not always drawn.

Tests used:
[1] = test system: PdxCreER;Bmal1flx/flx islets; assay: Static insulin secretion assay in islets isolated from tamoxifen-treated PdxCreER;Bmal1flx/flx mice (ELISA); assay type: cell-based, mouse; settings: islets from tamoxifen-treated mutant vs control mice, stimulated 1 hour; 1 mM carbachol, 10 μM PMA, 10 μM ionomycin, 2.5 μM forskolin, 1 mM 8-Br-cAMP
Protocol: Mouse pancreatic islets were isolated via bile duct collagenase digestion (Collagenase P, Sigma) and Ficoll gradient separation and left to recover overnight (16 hours) at 37° C. in RPMI 1640 with 10% fetal bovine serum (FBS), 1% 1-glutamine, and 1% penicillin/streptomycin. For standard insulin release assays, five islets were statically incubated in Krebs-Ringer buffer (KRB) and stimulated for 1 hour at 37° C. with various glucose concentrations, 30 mM KCl, 2.5 μM forskolin, 1 mM 8-Br-cAMP, 10 mM 1-leucine+2 mM 1-glutamine, 1 mM carbachol, 10 μM PMA, or 10 μM ionomycin. Supernatant was collected and assayed for insulin content by enzyme-linked immunosorbent assay (ELISA; Crystal Chem Inc.). Islets were then sonicated in acid-ethanol solution and solubilized overnight at 4° C. before assaying total insulin content by ELISA. For rhythmic insulin release assays, islets were first synchronized with 10 μM forskolin (Sigma) for 1 hour and allowed to recover for 16 hours. Insulin secretion assays were then performed as above in individual groups of five islets every 4 hours for 72 hours (FIG. 5A). Human islets (obtained from IIDP) were cultured in RPMI 1640 with 10% human AB serum, 1% 1-glutamine, and 1% penicillin/streptomycin (see table in FIG. S4A for details of sex, age, BMI, and IIDP ID numbers of the three donors). For the rhythmic analysis of RNAs in murine and human islets, RNA was isolated (described below) in groups of 200 islets every 4 hours for 48 or 24 hours, respectively, starting 40 hours after forskolin synchronization (FIG. 5A).
For in vivo delivery of tamoxifen (Sigma, dissolved in corn oil), mice received three intraperitoneal (i.p.) injections of 200 μg tamoxifen/g body weight, administered every other day. Subsequent experiments were conducted 10 to 14 days after tamoxifen treatment. For in vitro administration of tamoxifen, isolated islets were incubated for 24 hours with […] tamoxifen (dissolved in ethanol) prior to transfer to complete media for 24 hours to recover. Islets were then synchronized with forskolin prior to insulin secretion assays as described above.

[2] = test system: myotubes and MEFs; assay: Core clock gene expression after chemical hypoxia mimetic (qPCR); assay type: cell-based, mouse; settings: hypoxia induced with chemical mimetic CoCl2
Protocol: Total RNA was extracted from C2C12 and MEF cell pellets and snap-frozen mouse skeletal muscle tissue using Tri-Reagent (Molecular Research Center, Inc). For muscle tissue samples, tissue was homogenized using a TissueLyser II apparatus (Qiagen). cDNA was synthesized using the High Capacity cDNA Reverse Transcription kit (Applied Biosystems). Real-time PCR was performed and analyzed using a CFX384 (Biorad). PCR conditions were: 10 min at 95° C., then 35 cycles of 10 s at 95° C., 15 s at 60° C. Relative expression levels (normalized to 18S rRNA (C2C12 and MEF) or β-actin (skeletal muscle)) were determined using the comparative CT method.

[3] = test system: C2C12 myotubes; settings: 62.5 uM DMOG; DMSO-treated controls 22 hrs, p<0.05
Protocol: For PERIOD2:LUCIFERASE (PER2:LUC) reporter assays, C2C12 myoblast cells were first infected with PER2:LUC-expressing lentivirus (gift of A. Liu, University of Memphis) (18454201) and maintained in DMEM that included 10% FBS and 2.5 μg/ml blastocidin to select for stable Per2-luc integration. Myoblasts were then differentiated for 5 days with 2% horse serum, and then synchronized in 50% horse serum for 2 hours.

[4] = test system: Bmal1−/− Beta TC-6 cells; assay: High throughput insulin-NanoLuc screen for drugs that restore glucose-stimulated insulin secretion; assay type: cell-based, mouse; settings: 10 uM compound + 20 mM glucose, 1 hr
Protocol: A high throughput screen was used to identify small molecule drugs capable of restoring glucose-stimulated insulin secretion in clock-deficient beta cells. Bmal1^−/− beta cells and primary islets display reduced glucose-stimulated insulin secretion (GSIS) and that agonists of Gq-coupled muscarinic receptor and diacyl glycerol (DAG) signaling rescue secretion to that of wild type cells. Compounds to augment GSIS in Bmal1^−/− cells were identified by adding compounds in combination with 20 mM glucose and using the DAG mimetic Phorbol 12-myristate 13-acetate (PMA), which rescues GSIS in these cells, as a positive control. The spectrum collection small molecule compound library (MicroSource Discovery Systems, Inc) consisting of 2700 known drugs and drug-like molecules was screened for compounds that augment insulin secretion in Bmal1^−/− Beta TC-6 cells. Insulin Nanoluc expressing Bmal1^−/− Beta TC-6 cells (30,000 cells/well) were plated in 384 well plates and cultured for 4 days at 37° C. with 5% CO2. Prior to the assay, cells were washed once with KRB buffer containing 0 mM glucose and starved in glucose-free KRB buffer for 1 hour. After aspirating, KRB buffer containing 20 mM glucose in addition to small molecules (10 uM) were added, and the cells were incubated for 1 hour. As a negative control, 16 wells received only 20 mM glucose, which fails to elicit insulin secretion in Bmal1^−/− cells, and an additional 16 wells received KRB buffer containing 20 mM glucose and 10 μM PMA, which is known to induce insulin secretion in Bmal1^−/− mouse islets and Beta TC-6 cells. After 1 hour, the supernatant was collected and centrifuged at 500G for 30 min. The supernatant was transferred into a fresh 384-well assay plate containing Nano-Glo Luciferase Assay Substrate (Promega) and luciferase intensity was measured by EnSpire Plate Reader (PerkinElmer) Intensity was measured within 30 minutes.
Z scores for luciferase intensities produced by screened compounds were calculated from the following formula: z=(X−μ)/σ where z is the z-score, X is intensity of compounds, μ is the intensity of negative control (20 mM glucose), and σ is the standard deviation of negative control. Hit compounds were defined as those that elicited a response of more than 3 standard deviations from the mean (Z score>3). Hit Compounds
The Spectrum Collection small molecule compound library (MicroSource Discovery Systems, Inc), which consists of 2700 known drugs and drug-like molecules, was screened for compounds that augment insulin secretion in Bmal1^−/− Beta TC-6 cells. Insulin Nanoluc-expressing Bmal1^−/− Beta TC-6 cells (30,000 cells/well) were placed into 384 well plates and cultured for 4 days at 37° C. and 5% CO2. The cells were washed once and starved in KRB buffer containing 0 mM glucose for 1 hr. After removing the KRB, KRB buffer containing 20 mM glucose in addition to the small molecules (10 uM) were added, and the cells were incubated for 1 hr. As a negative control, 16 wells received KRB buffer with only 20 mM glucose, which fails to elicit insulin secretion in Bmal1^−/− cells, and as a positive control, 16 wells received KRB buffer containing 20 mM glucose and 10 μM PMA, which is known to induce insulin secretion in both Bmal1^−/− mouse islets and Beta TC-6 cells. After 1 hr, the supernatant was collected and centrifuged at 500 g for 30 min. The supernatant was transferred into a fresh 384-well assay plate containing Nano-Glo Luciferase Assay Substrate (Promega), and luciferase intensity was measured by EnSpire Plate Reader (PerkinElmer) within 30 minutes.
Z scores for luciferase intensities produced by screened compounds were calculated from the following formula: z=(X−μ)/σ (where z is the Z score, X is the intensity of the compounds, μ is the intensity of negative control (20 mM glucose), and a is the standard deviation of negative control). A row-based correction factor was applied to all luciferase readings to adjust for logarithmic signal decay. […]

[5] = test system: wild-type βTC-6 cells; assay: Glucose-stimulated insulin secretion assay in Beta TC-6 cells (ELISA); assay type: cell-based, mouse; settings: for effect on glucose-stimulated insulin secretion and calcium flux (validation of hits): hit compounds at 10 and 100 μM, 0 or 20 mM glucose
Protocol: Beta TC-6 cells (300,000 cells/well) were seeded into poly-L-lysine-coated 24 well plates and cultured for 48-72 hrs at 37° C. and 5% CO2. The cells were washed once and incubated in KRB buffer containing 0 mM glucose for 1 hr. Cells were then treated for 1 hr with KRB buffer containing 0 or 20 mM glucose in the presence of hit compounds (including ivermectin, alexidine, and tomatine at final concentrations of 10 and 100 μM) or an equivalent volume of DMSO as a vehicle control. Supernatants were then collected and centrifuged at 500G for 30 min and assayed for insulin content by ELISA (Crystal Chem Inc). Cell lysates were harvested in acid-ethanol solution (0.18M HCl in 70% Ethanol), sonicated, and solubilized overnight at 4° C. before assaying total insulin content by ELISA. For insulin secretion assays following prolonged ivermectin treatment, cells were first treated with 10 μm ivermectin for 24 hrs prior to the 1 hr incubation with 0 mM glucose KRB buffer.

[6] = test system: Beta-TC6 cells; assay: Intracellular calcium determination with Fura2-AM dye; assay type: cell-based, mouse; settings: Fura2-AM ratiometric, 10 μM ionomycin
Protocol: BetaTC-6 cells were plated at a density of 100,000 cells per well in black 96-well plates with clear bottoms and cultured overnight at 37° C. and 5% CO2. Islets were dispersed to single cells by incubating in 0.05% Trypsin-EDTA at 37° C. for 3 min and plated at a density of 100 islets per well in laminin-treated black 96-well plates with clear bottoms and cultured in complete media for 48 hours at 37° C. and 5% CO2. Cells were then washed with BSA-free KRB buffer with no glucose and loaded with 5 μM Fura-2 (Invitrogen) and 0.04% Pluronic F-127 (Invitrogen) for 30 min at 37° C. Following a wash with BSA-free KRB, Fura-2 intensity was measured after injection of either glucose or ionomycin (Sigma) to final concentrations of 20 mM or 10 μM, respectively. Cells were alternately excited with 340- and 380-nm light, and the emitted light was detected at 510 nm using a Cytation 3 Cell Imaging Multi-Mode Reader (Bio Tek) at sequential 30-s intervals. Raw fluorescence data were exported to Microsoft Excel and expressed as the 340/380 ratio for each well.

[7] = test system: wild-type βTC-6 cells; assay: Calcium flux (Fura-2) after exposure to glucose and compound; assay type: cell-based, mouse; settings: ivermectin 10 μM with glucose
Protocol: BetaTC-6 cells were plated at a density of 100,000 cells per well in black 96-well plates with clear bottoms and cultured overnight at 37° C. and 5% CO2. Cells were then washed with BSA-free KRB buffer with no glucose and loaded with 5 μM Fura-2 (Invitrogen) and 0.04% Pluronic F-127 (Invitrogen) for 30 min at 37° C. Following a wash with BSA-free KRB, Fura-2 intensity was measured following injection of either glucose alone or indicated compounds. Cells were alternately excited with 340 nm and 380 nm wavelength light, and the emitted light was detected at 510 nm using a Cytation 3 Cell Imaging Multi-Mode Reader (Bio Tek) at sequential 30-second intervals. Raw fluorescence data were exported to Microsoft Excel and expressed as the 340/380 ratio for each well.

Compound: Nc1ncnc2c1nc(Br)n2[C@@H]1O[C@@H]2COP(=O)(O)O[C@H]2[C@H]1O [8-br-cAMP]
- insulin secretion in PdxCreER;Bmal1flx/flx islets in response to secretagogue [1]: secreted significantly less insulin than controls

Compound: [Cl][Co][Cl] [CoCl2, cobalt chloride]
- expression of core clock genes [2]: increased expression of core clock genes

Compound: COC(=O)CNC(=O)C(=O)OC [DMOG, dimethyloxalyl glycine]
- period of PER2:LUC oscillations [3]: 23 h

Compound: CCCCCCCCCCCCCC(=O)O[C@@H]1[C@@H](C)[C@@]2(O)[C@@H](C=C(CO)C[C@]3(O)C(=O)C(C)=C[C@@H]23)[C@@H]2C(C)(C)[C@]12OC(C)=O [PMA, phorbol 12-myristate 13-acetate]
- insulin secretion in PdxCreER;Bmal1flx/flx islets in response to secretagogue [1]: restored insulin secretion
- glucose-dependent insulin secretion in the absence of BMAL1 (hit compound) [4]: rescues GSIS

Compound: CCCCC(CC)CNC(=N)NC(=N)NCCCCCCNC(=N)NC(=N)NCC(CC)CCCC (stereo not drawn) [alexidine hydrochlodire]
- glucose-dependent insulin secretion in the absence of BMAL1 (hit compound) [4]: stimulate glucose-dependent insulin secretion
- effect on glucose-stimulated insulin secretion and calcium flux (validation of hits) [5]: impact both glucose-stimulated insulin secretion and calcium flux

Compound: C[N+](C)(C)CCOC(N)=O [carbachol]
- insulin secretion in PdxCreER;Bmal1flx/flx islets in response to secretagogue [1]: restored insulin secretion
- glucose-dependent insulin secretion in the absence of BMAL1 (hit compound) [4]: stimulate glucose-dependent insulin secretion

Compound: C[C@H](CCC(=O)O)C[C@H](C)C[C@H](C)C(=O)/C=C(\O)[C@H](C)C[C@H](C)C/C=C/[C@@H](C)[C@@H](O)[C@@H](C)[C@@H](O)C[C@@H]1CC[C@@](C)([C@H]2CC[C@@](C)([C@@H](C)O)O2)O1 [ionomycin]
- insulin secretion in PdxCreER;Bmal1flx/flx islets in response to secretagogue [1]: significantly reduced in mutants
- intracellular Ca2+ [6]: raised intracellular Ca2+

Compound: CNC1(C)C2CCC(C2)C1(C)C (stereo not drawn) [mecamylamine hydrochloride]
- glucose-dependent insulin secretion in the absence of BMAL1 (hit compound) [4]: stimulate glucose-dependent insulin secretion

Compound: C[C@H]1CC[C@]2(NC1)O[C@H]1C[C@H]3[C@@H]4CC[C@H]5C[C@@H](O[C@@H]6O[C@H](CO)[C@H](O[C@@H]7O[C@H](CO)[C@@H](O)[C@H](O[C@@H]8OC[C@@H](O)[C@H](O)[C@H]8O)[C@H]7O[C@@H]7O[C@H](CO)[C@@H](O)[C@H](O)[C@H]7O)[C@H](O)[C@H]6O)CC[C@]5(C)[C@H]4CC[C@]3(C)[C@H]1[C@@H]2C [tomatine]
- glucose-dependent insulin secretion in the absence of BMAL1 (hit compound) [4]: stimulate glucose-dependent insulin secretion
- effect on glucose-stimulated insulin secretion and calcium flux (validation of hits) [5]: impact both glucose-stimulated insulin secretion and calcium flux

Compound: ivermectin
- glucose-dependent insulin secretion in the absence of BMAL1 (hit compound) [4]: stimulate glucose-dependent insulin secretion
- glucose-stimulated insulin secretion in wild-type βTC-6 cells ([5]; acute or prolonged exposure, presence or absence of glucose): enhances glucose-stimulated insulin secretion
- effect on glucose-stimulated insulin secretion and calcium flux (validation of hits) [5]: impact both glucose-stimulated insulin secretion and calcium flux
- calcium flux in wild-type βTC-6 cells [7]: enhances glucose-stimulated insulin secretion and calcium flux
